# Measurements as given in patent US20210113501A1, “METHOD OF ADMINISTERING BETA-HYDROXY-BETA-METHYLBUTYRATE (HMB)” (Metabolic Technologies, Inc., priority 2009, published 2021).
# Where “and” joins values, the source holds several entries; their conditions need not be identical. Equal entries are not always repeated. Where two headings read alike, the source gives them in different places.
# Columns and labels:
# [1] = Study 1: plasma HMB after a single dose, sampled to 180 min; assay type: in vivo, human; settings: for AUC plasma HMB / greater area under the curve (AUC) than CaHMB: 180 min; for Cpeak (peak plasma HMB concentration): single dose 1 g CaHMB or 0.80 g free acid
# From the text: (§1) Human subjects. In study 1, four male and four female college-aged subjects were studied. In study 2, an additional four male and four female college-aged subjects were studied. The protocols for both studies were approved by the Iowa State University IRB and each subject gave informed consent to participate in the study. Due to the nature of the treatments, neither the subjects nor the researchers could be blinded.
# (§2) Treatments. The same treatments were given to the subjects in both study groups. The three treatments were given in random order to each subject with at least a one week washout period between treatments. The treatments were supplied by Metabolic Technologies, Inc. (MTI, Ames, Iowa) and were prepared with food grade ingredients. One gram of CaHMB or the equivalent HMB in free acid in a gel form was administered to the subjects. The CaHMB capsules were obtained from a commercial supplement manufacturer (Optimum Nutrition, Aurora, Ill.) while the HMB-acid gel was prepared at MTI laboratories. Briefly, the HMB-acid was adjusted to a pH 4.5 with potassium carbonate (K2CO3) and flavors and sweeteners were then added. The 1.0 g CaHMB capsule was taken with 355 mL of water (approx. 12 oz.). The free acid gel dosage was 0.80 g and was equivalent to the free acid contained in the CaHMB in the capsule. The free acid gel treatments were either swallowed (FASW) or held sublingual for 15 seconds and then swallowed (FASL). FASW consisted of expelling the entire dose into the mouth in a 3 ml syringe, swallowing, and then following this with 355 mL of water. FASL subjects were instructed to place the entire dosage under the tongue and hold the dosage for 15 sec before swallowing. They then rinsed and followed the dose with 355 mL of water.
# Study 1 design. For study 1 the subjects reported to the laboratory in the morning following an overnight fast. Before ingestion of one of the supplemental treatments, a flexible sterile polyethylene catheter was inserted into a forearm vein using sterile procedures and a pre-ingestion blood sample was drawn. Subsequent blood samples were taken at 0, 2, 5, 10, 15, 25, 35, 45, 60, 90, 120 and 180 min after ingestion of the treatment. Plasma was separated and samples were stored frozen at −70° C. for analysis of HMB concentration. In addition, a portion of the pre-ingestion and 180 minute blood samples were used for measurements (LabCorp, Kansas City, Mo.) of glucose, uric acid, blood urea nitrogen (BUN), creatinine, sodium, potassium, chloride, carbon dioxide, phosphorous, protein, albumin, globulin, albumin:globulin ratio, total bilirubin, direct bilirubin, alkaline phosphatase, lactate dehydrogenase, aspartate aminotransferase (AST), alanine aminotransferase (ALT), gamma-glutamyl transpeptidase (GGT), iron binding capacity (TIBC), unsaturated iron binding capacity (UIBC), iron, iron saturation, total cholesterol, triglycerides, high density lipoprotein (HDL), low density lipoprotein (LDL), and cholesterol ratio. A complete blood count (CBC) was also performed before and after the 180 min treatment period. Subjects also completed a brief questionnaire to report any physical symptoms (such as nausea, headache, etc) they may have experienced during the experiment.
# (§3) HMB analysis. Plasma and urine HMB were analyzed by gas chromatography/mass spectrometry (GC/MS) as previously described.(27)
# Calculations and statistics. Areas under the curves were calculated for each subject using the trapezoidal method that sums the area above baseline.(51) Half-life of plasma HMB was calculated for study 2. The following equations were used: […]
# The data were analyzed using a crossover design with Proc GLM in SAS. (45) For the timed sampling of plasma HMB a repeated measures polynomial model was used. The model included subject, order, and treatment main effects and time by treatment interaction where appropriate. […]
# [2] = Study 2: plasma HMB and urinary HMB excretion over 24 h; assay type: in vivo, human; settings: Study 2; for AUC plasma HMB: 24 h; for Clearance: Vd assumed 20% of body weight; for tpeak: unit as in Table 5; for AUC greater than for CaHMB capsules: over 24 hours
# From the text: as §1, §2
# Study 2 design. Study 2 was conducted similar to study 1 with the following modifications. In study 2, plasma levels of HMB were measured for 1440 min (24 h) and total urine collection was also performed for measurement of urinary HMB excretion during this period. After the 180 min blood sample, the subjects were allowed to leave the laboratory and were instructed to return to the laboratory for additional blood samples at 360, 720, and 1440 min after the ingestion of the supplement. As in study 1, each subject took each of the treatments with at least a one week washout period between treatments. Samples were again stored frozen at −70° C. for analysis of plasma and urinary HMB concentrations. Pre-ingestion, 180 min and 1440 min blood samples were again assayed for the same measurements already for study 1. Subjects were provided with a standardized lunch after the 180 min blood sampling and instructed to eat this at approximately 240 min post ingestion. Following the 720 min blood sample, subjects were instructed to eat a normal evening meal before 10 pm. Subjects reported back to the laboratory the following morning for the fasted 1440 min blood sample. A urine collection container was provided and subjects collected all urine produced during the experimental 24 h experimental period. The urine was stored refrigerated when not being collected. Urine volumes were measured and samples of the total urine collection were taken and stored frozen at −70° C. until analyzed for HMB.
# as §3
# Calculations and statistics. Areas under the curves were calculated for each subject using the trapezoidal method that sums the area above baseline.(51) Half-life of plasma HMB was calculated for study 2. The following equations were used:
# k=(ln(Cpeak)−ln(Ctrough))/Tinterval
# Peak plasma concentrations for each subject were used for Cpeak. […] Tpeak was the time at which Cpeak was measured and Tinterval is the time from Tpeak until the time at Ctrough (720 min). The extracellular fluid compartment was assumed to be 20% of body weight and calculated using equation 3 below(1). […]
# [3] = listed as Free Acid Gel Sublingual
# [4] = listed as Free Acid Gel Swallow
smiles,measurement,setting,value
"CC(C)(O)CC(=O)[O-].CC(C)(O)CC(=O)[O-].[Ca+2] [CaHMB, calcium β-hydroxy-β-methylbutryate, reference compound]",time of peak plasma HMB,[1],122 ± 15.6 min
same,tpeak (time to reach peak plasma concentration),[1],121.9 ± 15.6 min
same,AUC plasma HMB,[1],"13,997 ± 1,534 nmol/180 min"
same,Cpeak (peak plasma HMB concentration),[1],131 ± 10 nmol/mL and 131.2 ± 10.1 nmol/mL
same,24 h Urine HMB,[2],1.00 ± 0.13 mmol
same,"24 h Urine HMB, % initial dose",[2],14.7±2.0 % initial dose
same,Cpeak (peak plasma HMB concentration),[2],131.2 ± 6.0 nmol/mL
same,Half-life of plasma HMB,[2],3.17 ± 0.22 h
same,time to peak plasma HMB concentration,[2],135.0 ± 17.0 min
same,AUC plasma HMB,[2],"46,281 ± 2,717 nmol/1440 min"
same,Clearance,[2],53.9 ± 4.2 mL/min
same,plasma HMB level at 360 and 720 min versus free acid gel,[2]; p<0.05,slightly higher
same,tpeak,[2],135 ± 17 min
"CC(C)(O)CC(=O)O [HMB-Acid Gel Sublingual, 3-hydroxy-3-methylbutyric acid]",greater area under the curve (AUC) than CaHMB,[1]; listed as FASL,91%
same,AUC plasma HMB,[1]; [3],"26,778 ± 1,980 nmol/180 min"
same,tpeak (time to reach peak plasma concentration),[1]; listed as FASL,36.3 ± 1.3 min
same,tpeak (time to reach peak plasma concentration),[1]; [3],36.3 ± 1.3 min
same,Cpeak (peak plasma HMB concentration),[1]; listed as FASL,231 ± 21 nmol/mL
same,Cpeak (peak plasma HMB concentration),[1]; [3],231.2 ± 21.0 nmol/mL
same,24 h Urine HMB,[2],1.16 ± 0.17 mmol
same,"24 h Urine HMB, % initial dose",[2],17.2 ± 2.5 % initial dose
same,Cpeak (peak plasma HMB concentration),[2],247.6 ± 19.8 nmol/mL
same,AUC plasma HMB,[2],"52,886 ± 2,729 nmol/1440 min"
same,Clearance,[2],66.9 ± 1.6 mL/min
same,"24 h Urine HMB, % initial dose",[2]; listed as FASL,17.2±2.5 % initial dose
same,Cpeak (peak plasma HMB concentration),[2]; listed as FASL,247.6 ± 19.8 nmol/mL
same,Half-life of plasma HMB,[2]; listed as FASL,2.51 ± 0.14 h
same,time to peak plasma HMB concentration,[2]; listed as FASL,38.8 ± 2.6 min
same,AUC greater than for CaHMB capsules,[2]; listed as FASL,14.3%
same,tpeak,[2],38.8 ± 2.6 min
"CC(C)(O)CC(=O)O [HMB-Acid Gel Swallow, 3-hydroxy-3-methylbutyric acid]",greater area under the curve (AUC) than CaHMB,[1]; listed as FASW,97%
same,AUC plasma HMB,[1]; [4],"27,532 ± 1,742 nmol/180 min"
same,tpeak (time to reach peak plasma concentration),[1]; listed as FASW,33.1 ± 4.6 min
same,tpeak (time to reach peak plasma concentration),[1]; [4],33.1 ± 4.6 min
same,Cpeak (peak plasma HMB concentration),[1]; listed as FASW,259 ± 24 nmol/mL
same,Cpeak (peak plasma HMB concentration),[1]; [4],259.1 ± 23.9 nmol/mL
same,24 h Urine HMB,[2],1.21 ± 0.19 mmol
same,"24 h Urine HMB, % initial dose",[2],17.8 ± 2.9 % initial dose
same,Cpeak (peak plasma HMB concentration),[2],238.6 ± 16.0 nmol/mL
same,AUC plasma HMB,[2],"53,395 ± 2,862 nmol/1440 min"
same,"24 h Urine HMB, % initial dose",[2]; listed as FASW,17.8±2.9 % initial dose
same,Cpeak (peak plasma HMB concentration),[2]; listed as FASW,238.6 ± 16.0 nmol/mL
same,time to peak plasma HMB concentration,[2]; listed as FASW,41.9 ± 5.8 min
same,AUC greater than for CaHMB capsules,[2]; listed as FASW,15.4%
same,tpeak,[2],41.9 ± 5.8 min
same,half-life,"[2]; both sexes, human, plasma, oral, 0.8 g",2.5 ± 0.13 h
same,Clearance,"[2]; both sexes, human, plasma, oral, 0.8 g, read-out: Clearance",67.3 ± 3.2 mL/min
